Each structure is given as a SMILES string. Active and inactive are the calls of the source. The calls are words filed in the database; no cut-off is given here. *1 amine or outer side, *2 acyl side, *3 side chain or, on linkers, in order; H or OH if unused. Where a SMILES comes first, the peptide text is derived from it. [ ]: non-standard residue; d: D form. X1 = Cc1oc([C@H](Cc2ccccc2)N[*:1])nc1C(=O)[*:2]; X3 = CC[C@H](C)[C@H](N[*:1])c1nc(C(=O)[*:2])co1; X2 = Cc1oc([C@H](C)N[*:1])nc1C(=O)[*:2]

Assay [1] can be described thus: Metal chelating activity assessed as Fe3+ complex formation measured after 45 mins by CAS assay. Format: functional.
The subject of the next assay is MCF7. The assay can be described thus: Cytotoxicity against human MCF7 cells measured after 72 hrs by MTT assay. Format: functional, cell-based. Conditions: MCF7, 72 h.
Assay [2] is described as follows: Metal chelating activity assessed as Fe3+ complex formation at 89 uM measured after 45 mins by CAS assay. Format: functional.
The next assay has as its system NCI-H460. The assay can be described thus: Cytotoxicity against human NCI-H460 cells measured after 72 hrs by MTT assay. Format: functional, cell-based. The conditions noted are these: NCI-H460, 72 h.

For the compound `CC(=O)N(O)CCCCCNC(=O)CCC(=O)N(O)CCCCCNC(=O)CCC(=O)N(O)CCCCCN` [DEFEROXAMINE], the IC50 in assay [1] came to 5100 nM.

As to `CC[C@H](C)[C@@H]1NC(=O)[C@@H]2CCCN2C(=O)[C@H](Cc2ccccc2)NC(=O)c2nc(oc2C)[C@H](C)NC(=O)c2nc(oc2C)[C@H](Cc2ccccc2)NC(=O)CNC(=O)[C@@H]2CCCN2C(=O)[C@@H]2CCCN2C(=O)[C@H](C)NC(=O)c2coc1n2` (cyclo(APPG[X1][X2]FP[X3])), the IC50 with MCF7 is 580 nM; with NCI-H460, 1000 nM. Moreover, in assay [2], the result was inactive.
